Laboratory results taken from ChEMBL document CHEMBL5050844 (2019).

What was measured:
[1] = molecular target: T1, E3 ubiquitin-protein ligase CBL-B (Homo sapiens, UniProt Q13191); experiment: Inhibition of N-terminal Avi-tagged human CBL-B (36 to 427 residues) incubated with 60 nM Src kinase for 1.5 hrs followed by incubation with fluorescently labeled UbcH5B-Ub for 1 hr and measured by TR-FRET assay; type: single protein
[2] = Induction of anti-CD3 antibodies-stimulated human CD4+ T cell activation in immunocompetent mouse assessed fold increase in CD25 expression at 180 mg/kg, po administered twice a day; type: functional; also: reference of the scale not given here
[3] = Induction of anti-CD3/CD28 antibodies-stimulated human T cell activation at 1 uM assessed fold increase in CD25 expression measured by ELISA assay; type: functional, T cell line
[4] = Induction of anti-CD3 antibodies-stimulated human CD8+ T cell activation in immunocompetent mouse assessed fold increase in CD25 expression at 45 mg/kg, po administered twice a day; type: functional; also: reference of the scale not given here
[5] = Induction of anti-CD3 antibodies-stimulated human CD4+ T cell activation in immunocompetent mouse assessed fold increase in CD25 expression at 90 mg/kg, po administered twice a day; type: functional; also: reference of the scale not given here
[6] = Induction of anti-CD3/CD28 antibodies-stimulated human T cell activation at 0.3 uM assessed fold increase in CD25 expression measured by ELISA assay; type: functional, T cell line
[7] = Induction of anti-CD3/CD28 antibodies-stimulated human T cell activation at 1 uM assessed fold increase in IL-2 secretion measured by ELISA assay; type: functional, T cell line
[8] = Induction of anti-CD3 antibodies-stimulated human T cell activation at 1 uM assessed fold increase in CD25 expression measured by ELISA assay; type: functional, T cell line; also: reference of the scale not given here
[9] = Induction of anti-CD3 antibodies-stimulated human CD4+ T cell activation in immunocompetent mouse assessed fold increase in CD25 expression at 90 mg/kg, ip administered twice a day; type: functional; also: reference of the scale not given here
[10] = Induction of anti-CD3 antibodies-stimulated human CD8+ T cell activation in immunocompetent mouse assessed fold increase in CD25 expression at 135 mg/kg, po administered twice a day; type: functional; also: reference of the scale not given here
[11] = Induction of anti-CD3/CD28 antibodies-stimulated human T cell activation at 0.3 uM assessed fold increase in IL-2 secretion measured by ELISA assay; type: functional, T cell line
[12] = Induction of anti-CD3 antibodies-stimulated human T cell activation at 1 uM assessed fold increase in IL-2 secretion measured by ELISA assay; type: functional, T cell line; also: reference of the scale not given here
[13] = Induction of anti-CD3 antibodies-stimulated human CD8+ T cell activation in immunocompetent mouse assessed fold increase in CD25 expression at 90 mg/kg, ip administered thrice a day; type: functional; also: reference of the scale not given here
[14] = Induction of anti-CD3 antibodies-stimulated human CD8+ T cell activation in immunocompetent mouse assessed fold increase in CD25 expression at 180 mg/kg, po administered twice a day; type: functional; also: reference of the scale not given here
[15] = Induction of anti-CD3 antibodies-stimulated human T cell activation at 8 uM assessed fold increase in IL-2 secretion measured by ELISA assay; type: functional, T cell line; also: reference of the scale not given here
[16] = molecular target: T1, E3 ubiquitin-protein ligase CBL-B; experiment: Binding affinity towards N-terminal biotinylated Avi-tagged human CBL-B (36 to 427 residues) measured by surface plasmon resonance assay
[17] = Induction of activation of human CD56+ CD3- NK cells co-cultured with human K562 cells in 1:1 ratio and assessed as increase in MIP1beta secretion at 1 uM measured by ELISA assay; type: functional, Natural killer cell
[18] = Induction of activation of human CD56+ CD3- NK cells co-cultured with human K562 cells in 1:1 ratio and assessed as increase in MIP1beta secretion at 10 uM measured by ELISA assay; type: functional, Natural killer cell
[19] = Induction of anti-CD3 antibodies-stimulated human CD4+ T cell activation in immunocompetent mouse assessed fold increase in CD25 expression at 135 mg/kg, po administered twice a day; type: functional; also: reference of the scale not given here
[20] = Induction of anti-CD3 antibodies-stimulated human CD8+ T cell activation in immunocompetent mouse assessed fold increase in CD25 expression at 90 mg/kg, po administered twice a day; type: functional; also: reference of the scale not given here
[21] = Induction of activation of human CD56+ CD3- NK cells co-cultured with human K562 cells in 5:1 ratio and assessed as increase in TNF-alpha secretion at 1 uM measured by ELISA assay; type: functional, Natural killer cell
[22] = Induction of anti-CD3 antibodies-stimulated human T cell activation at 8 uM assessed fold increase in CD25 expression measured by ELISA assay; type: functional, T cell line; also: reference of the scale not given here
[23] = Induction of anti-CD3/CD28 antibodies-stimulated human T cell activation at 4 uM assessed fold increase in IL-2 secretion measured by ELISA assay; type: functional, T cell line
[24] = Induction of activation of human CD56+ CD3- NK cells co-cultured with human K562 cells in 1:1 ratio and assessed as increase in TNF-alpha secretion at 10 uM measured by ELISA assay; type: functional, Natural killer cell
[25] = Induction of activation of human CD56+ CD3- NK cells co-cultured with human K562 cells in 5:1 ratio and assessed as increase in TNF-alpha secretion at 10 uM measured by ELISA assay; type: functional, Natural killer cell
[26] = Induction of activation of human CD56+ CD3- NK cells co-cultured with human K562 cells in 5:1 ratio and assessed as increase in MIP1beta secretion at 10 uM measured by ELISA assay; type: functional, Natural killer cell
[27] = Induction of activation of human CD56+ CD3- NK cells co-cultured with human K562 cells in 5:1 ratio and assessed as increase in IFN-gamma secretion at 10 uM measured by ELISA assay; type: functional, Natural killer cell
[28] = Induction of activation of human CD56+ CD3- NK cells co-cultured with human K562 cells in 1:1 ratio and assessed as increase in IFN-gamma secretion at 10 uM measured by ELISA assay; type: functional, Natural killer cell
[29] = Induction of activation of human CD56+ CD3- NK cells co-cultured with human K562 cells in 1:1 ratio and assessed as increase in IFN-gamma secretion at 1 uM measured by ELISA assay; type: functional, Natural killer cell
[30] = Induction of anti-CD3/CD28 antibodies-stimulated human T cell activation at 4 uM assessed fold increase in CD25 expression measured by ELISA assay; type: functional, T cell line
[31] = Induction of activation of human CD56+ CD3- NK cells co-cultured with human K562 cells in 5:1 ratio and assessed as increase in IFN-gamma secretion at 1 uM measured by ELISA assay; type: functional, Natural killer cell
[32] = Induction of activation of human CD56+ CD3- NK cells co-cultured with human K562 cells in 1:1 ratio and assessed as increase in TNF-alpha secretion at 1 uM measured by ELISA assay; type: functional, Natural killer cell
[33] = Induction of activation of human CD56+ CD3- NK cells co-cultured with human K562 cells in 5:1 ratio and assessed as increase in MIP1beta secretion at 1 uM measured by ELISA assay; type: functional, Natural killer cell
[34] = Induction of activation of human CD56+ CD3- NK cells co-cultured with human K562 cells in 1:1 ratio and assessed as increase in TNF-alpha secretion at 0.625 uM measured by ELISA assay; type: functional, Natural killer cell
[35] = Induction of allogenic human T cell activation at 3 uM assessed fold increase in cell proliferation; type: functional, T cell line
[36] = Induction of anti-CD3 antibodies-stimulated human exhausted CD8+ T cell activation assessed fold increase in CTLA4 expression measured by flow cytometry analysis; type: functional, T cell line; also: reference of the scale not given here
[37] = system: B cell; experiment: Induction of anti-IgM-stimulated human CD20+ B cell activation at 10 to 1000 uM assessed as increase in CD69 expression measured as mean fluorescence intensity AUC by flow cytometry analysis; type: functional, cell-based; conditions: dose 10-1000 µM
[38] = Induction of anti-CD3 antibodies-stimulated human exhausted T cell activation assessed fold increase in GM-CSF secretion measured by ELISA assay; type: functional, T cell line; also: reference of the scale not given here
[39] = Induction of activation of human CD56+ CD3- NK cells co-cultured with human K562 cells in 1:1 ratio and assessed as increase in TNF-alpha secretion at 2.5 uM measured by ELISA assay; type: functional, Natural killer cell
[40] = Induction of activation of human CD56+ CD3- NK cells co-cultured with human K562 cells in 1:1 ratio and assessed as increase in IFN-gamma secretion at 0.625 uM measured by ELISA assay; type: functional, Natural killer cell
[41] = Induction of activation of human CD56+ CD3- NK cells co-cultured with human K562 cells in 1:1 ratio and assessed as increase in IFN-gamma secretion at 2.5 uM measured by ELISA assay; type: functional, Natural killer cell
[42] = Induction of anti-CD3/CD28 antibodies-stimulated human anergic T cell activation at 1.11 uM assessed fold increase in IFN-gamma secretion measured by ELISA assay; type: functional, T cell line
[43] = Induction of allogenic human T cell activation at 10 uM assessed fold increase in cell proliferation; type: functional, T cell line
[44] = Induction of anti-CD3/CD28 antibodies-stimulated human anergic T cell activation at 10 uM assessed fold increase in IFN-gamma secretion measured by ELISA assay; type: functional, T cell line
[45] = Induction of anti-CD3 antibodies-stimulated human exhausted CD4+ T cell activation assessed fold increase in CTLA4 expression measured by flow cytometry analysis; type: functional, T cell line; also: reference of the scale not given here
[46] = Induction of anti-CD3 antibodies-stimulated human exhausted T cell activation assessed fold increase in IFN-gamma secretion measured by ELISA assay; type: functional, T cell line; also: reference of the scale not given here
[47] = Induction of anti-CD3/CD28 antibodies-stimulated human anergic T cell activation at 0.37 uM assessed fold increase in IFN-gamma secretion measured by ELISA assay; type: functional, T cell line
[48] = Induction of anti-CD3 antibodies-stimulated human exhausted T cell activation assessed fold increase in IL-2 secretion measured by ELISA assay; type: functional, T cell line; also: reference of the scale not given here

T1 sequence (Q13191 whole entry, the tested form may be a part): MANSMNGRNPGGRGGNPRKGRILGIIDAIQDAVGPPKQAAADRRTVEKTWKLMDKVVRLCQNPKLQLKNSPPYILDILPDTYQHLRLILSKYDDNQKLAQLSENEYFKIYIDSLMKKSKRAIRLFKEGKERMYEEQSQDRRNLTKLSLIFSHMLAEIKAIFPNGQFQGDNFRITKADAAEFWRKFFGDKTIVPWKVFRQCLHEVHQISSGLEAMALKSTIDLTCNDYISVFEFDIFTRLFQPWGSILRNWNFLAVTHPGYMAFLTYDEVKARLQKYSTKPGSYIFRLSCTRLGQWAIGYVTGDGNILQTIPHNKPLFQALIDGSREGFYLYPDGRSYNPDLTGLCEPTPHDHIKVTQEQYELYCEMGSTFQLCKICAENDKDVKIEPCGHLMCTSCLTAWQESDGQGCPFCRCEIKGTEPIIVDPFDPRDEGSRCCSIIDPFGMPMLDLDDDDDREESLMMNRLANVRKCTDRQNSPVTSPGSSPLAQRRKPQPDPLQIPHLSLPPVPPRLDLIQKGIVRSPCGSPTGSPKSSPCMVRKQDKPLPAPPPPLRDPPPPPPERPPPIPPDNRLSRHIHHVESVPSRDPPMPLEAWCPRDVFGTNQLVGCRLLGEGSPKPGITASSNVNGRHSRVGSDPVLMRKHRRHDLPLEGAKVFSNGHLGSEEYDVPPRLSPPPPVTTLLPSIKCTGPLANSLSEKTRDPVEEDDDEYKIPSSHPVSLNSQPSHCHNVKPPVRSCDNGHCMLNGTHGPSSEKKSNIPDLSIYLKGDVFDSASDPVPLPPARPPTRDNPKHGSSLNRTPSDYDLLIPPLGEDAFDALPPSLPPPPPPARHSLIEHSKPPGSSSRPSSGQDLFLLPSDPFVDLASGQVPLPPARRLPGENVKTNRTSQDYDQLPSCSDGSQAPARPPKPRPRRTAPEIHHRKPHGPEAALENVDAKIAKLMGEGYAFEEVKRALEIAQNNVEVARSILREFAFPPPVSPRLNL

Structure (SMILES) | IC50 [1] [nM] | fold change (FC) [2] | fold change (FC) [3] | fold change (FC) [4] | fold change (FC) [5] | fold change (FC) [6] | fold change (FC) [7] | fold change (FC) [8] | fold change (FC) [9] | fold change (FC) [10] | fold change (FC) [11] | fold change (FC) [12] | fold change (FC) [13] | fold change (FC) [14] | fold change (FC) [19] | fold change (FC) [20] | fold change (FC) [24] | fold change (FC) [28] | other results
C[C@@H](c1cc2c(c(C(F)(F)F)c1)CN(c1cccc(C3([C@@H](F)c4nncn4C)COC3)c1)C2=O)N1CCC2(CC2)C1 (single isomer, unassigned) | < 100 | >2.5 | 1.31 | 1 | >2.5 | 1.31 | >=7.5 | >=1.001 | 1.51 | 1.51 | >=7.5 | >=0.201 | 1.51 | 1.51 | – | – | – | – | –
Cn1cnnc1C(F)(F)[C@](C)(F)c1cccc(N2Cc3c(cc(CN4CC[C@H](F)C4)cc3C(F)(F)F)C2=O)c1 | < 100 | 1.51 | 1.51 | <1 | 1 | 1.31 | >=7.5 | >=1.001 | – | 1 | 2.51 | >=0.201 | <1 | 1 | 1 | 1 | 2.01 | >=5 | fold change (FC) [15]: >=0.201; Kd [16]: < 100 nM; fold change (FC) [17]: <=1; fold change (FC) [18]: 1.01; fold change (FC) [21]: 2.01; fold change (FC) [22]: >=1.001; fold change (FC) [23]: >=7.5; fold change (FC) [25]: >=5; fold change (FC) [26]: 2.01; fold change (FC) [27]: >=5; fold change (FC) [29]: 2.01; fold change (FC) [30]: 1.51; fold change (FC) [31]: >=5; fold change (FC) [32]: 2.01; fold change (FC) [33]: 1.01
C[C@@H]1CN(Cc2cc3c(c(C(F)(F)F)c2)CN(c2cccc(C4(Cc5nncn5C)COC4)c2)C3=O)CCO1 | < 100 | – | 1.31 | 1 | – | 1.31 | >=7.5 | >=1.001 | 1 | – | >=7.5 | >=0.201 | – | – | 1.51 | 1 | – | – | –
Cn1cnnc1CC1(c2cccc(NC(=O)c3cc(CN4CCC5(CC5)C4)cc(C4CC4)n3)c2)COC1 | < 100 | >2.5 | 1.31 | 1 | >2.5 | 1.31 | >=7.5 | >=1.001 | 1.51 | 1 | >=7.5 | >=0.201 | 1 | 1.51 | – | – | >=5 | >=5 | fold change (FC) [34]: >=5; fold change (FC) [35]: >3; fold change (FC) [36]: >1.61; AUC [37]: > 1.51; fold change (FC) [38]: >1.61; fold change (FC) [39]: 1.01; fold change (FC) [40]: 2.01; fold change (FC) [41]: >=5; fold change (FC) [42]: >4.01; fold change (FC) [43]: >3; fold change (FC) [44]: >4.01; fold change (FC) [45]: >1.61; fold change (FC) [46]: >1.61; fold change (FC) [47]: >4.01; fold change (FC) [48]: 2.51
